The source made the active and inactive calls. Cut-off read from the data, not from the text of the source, for most assays here: actives have a measured EC50 and inactives only a lower limit.
How the values were obtained:
[1] = cytotoxicity toward NIH3T3 fibroblasts, dose response, counter-screen, cell-based, ATP luminescence, mouse fibroblasts (AID 2010); format: functional;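 note: cells exposed to compound for about 90 hours before reading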
[2] = inhibitors of intracellular T. cruzi replication, confirmation, NIH3T3 host cells, beta-gal luminescence (AID 2044); format: functional, cell-based;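 note: intracellular parasites grown in NIH/3T3 mouse fibroblasts as host cells; luminescent beta-galactosidase reporter signal from transgenic T. cruzi replicating inside host cells; inhibitors lower the luminescence signal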
[3] = test system: Streptococcus sp. 'group A'; experiment: growth inhibition of control SK(-) GAS strain, dose response, counter-screen for streptokinase expression inhibitor project, luminescence, kanamycin, BacTiterGlo, confirmation (AID 1900); format: functional, organism-based
[4] = test system: Streptococcus; experiment: Group A Streptococcus viability loss, dose response, counter-screen for streptokinase expression inhibitor project, luminescence, BacTiterGlo (AID 1915); format: functional, organism-based;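 note: potency for reduction of bacterial viability or growth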
[5] = molecular target: T1, Streptokinase A (Streptococcus pyogenes serotype M1, UniProt P10520); experiment: S. pyogenes streptokinase expression inhibitors, potency, dose response, plasminogen activation absorbance, OD405 (AID 1914); format: functional, Streptococcus pyogenes M1 GAS;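 note: secreted streptokinase activity via plasminogen activation per viability signal from cell pellet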
T1 sequence (P10520 whole entry): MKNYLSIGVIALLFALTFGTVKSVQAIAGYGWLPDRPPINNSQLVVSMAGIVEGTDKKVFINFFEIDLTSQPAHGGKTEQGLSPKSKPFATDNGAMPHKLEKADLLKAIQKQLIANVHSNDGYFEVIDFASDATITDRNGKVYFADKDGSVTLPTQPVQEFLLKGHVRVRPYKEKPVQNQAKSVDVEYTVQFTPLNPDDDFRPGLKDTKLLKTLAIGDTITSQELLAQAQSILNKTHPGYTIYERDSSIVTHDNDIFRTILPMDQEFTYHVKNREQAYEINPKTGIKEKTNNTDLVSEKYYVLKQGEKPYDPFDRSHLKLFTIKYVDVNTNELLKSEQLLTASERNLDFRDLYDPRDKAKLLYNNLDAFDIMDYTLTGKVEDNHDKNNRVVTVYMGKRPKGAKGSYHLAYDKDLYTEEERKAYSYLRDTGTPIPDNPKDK

[6] = HEp-2 cell cytotoxicity, dose response, cytotoxicity control for RSV inhibitor project, HTS (AID 2410); format: functional; details: human respiratory syncytial virus
[7] = test system: INS1; experiment: beta cell apoptosis inhibitors, cytokine rescue, dose response, luminescence, retest (AID 449756); format: functional, cell-based; details: Rattus norvegicus;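 note: cell death triggered by IL-1 beta plus TNF-alpha plus IFN-gamma mixture; protective hits raise ATP signal compared with cytokine alone wells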
[8] = molecular target: T2, Cytochrome P450 1A2 (Homo sapiens, UniProt P05177);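 note: PubChem cytochrome P450 panel assay, CYP1A2 panel member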
T2 sequence (P05177 whole entry): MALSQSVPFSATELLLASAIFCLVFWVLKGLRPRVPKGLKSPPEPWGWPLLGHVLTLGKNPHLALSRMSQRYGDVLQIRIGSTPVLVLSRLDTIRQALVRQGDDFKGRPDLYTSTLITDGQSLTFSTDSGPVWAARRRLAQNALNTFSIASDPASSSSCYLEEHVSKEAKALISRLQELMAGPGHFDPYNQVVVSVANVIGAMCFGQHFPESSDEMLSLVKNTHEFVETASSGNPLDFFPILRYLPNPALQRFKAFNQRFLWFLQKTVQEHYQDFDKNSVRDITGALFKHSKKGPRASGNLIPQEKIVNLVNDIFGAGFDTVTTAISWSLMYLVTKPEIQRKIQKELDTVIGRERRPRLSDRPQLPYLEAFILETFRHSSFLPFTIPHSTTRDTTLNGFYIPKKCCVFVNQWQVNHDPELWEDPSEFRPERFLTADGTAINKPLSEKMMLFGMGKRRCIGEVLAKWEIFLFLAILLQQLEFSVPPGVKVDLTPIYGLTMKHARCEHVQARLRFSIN

Fc1cccc(Cc2noc(CN3CCCN(C4Cc5ccccc5C4)CC3)n2)c1
EC50 [1]: 45.2 µM (active)
EC50 [2]: 0.57 µM (active)

COc1ccc2c(c1)c(CC(=O)NCc1cc([N+](=O)[O-])ccc1O)c(C)n2C(=O)c1ccc(Cl)cc1
EC50 [3]: 19.1 µM (active)
EC50 [4]: > 150 µM (not active)
EC50 [5]: 20.2 µM (active)

CCOC(=O)c1ccc(Oc2c[nH]nc2-c2ccc(OCC(=O)NN)cc2O)cc1
EC50 [3]: > 150 µM (not active)
EC50 [4]: > 150 µM (not active)
EC50 [5]: > 150 µM (not active)

O=C(Nc1ccccc1N1CCCCC1)c1cc(S(=O)(=O)N2CCOCC2)ccc1Cl
CC50 [6]: 21.7 µM (active)

CC(C)c1nc(-c2ccccc2)c(-c2ccccc2)[nH]1
AC50 [7]: 7.08 µM (active)

COc1cccc(N/C(C)=C/C(=O)c2ccc(Br)cc2)c1
CC50 [6]: 25.5 µM (active)

COc1ccc(C(=O)NC(=S)NNC(=O)COc2ccccc2)cc1
EC50 [3]: 2.23 µM (active)
EC50 [4]: 3.64 µM (active)

CCOC(=O)c1[nH]c(C)c(C(=O)OCC(=O)N2c3ccccc3CC2C)c1C (stereo unspecified)
AC50 [8]: 12.6 µM (inconclusive)

N=C(N)C(/N=N\c1ccccc1)C(=N)N (stereo unspecified)
AC50 [8]: 5.01 µM (inconclusive)

COc1cccc(C(=O)OC2CCN(C)CC2)c1
EC50 [1]: > 30 µM (not active)
EC50 [2]: 0.233 µM (active)

CCCc1cc(COC)c(C#N)c(O)n1
AC50 [8]: 6.31 µM (inconclusive)

O=C1N(c2ccccc2)c2ccccc2C1(Cc1ccncc1)Cc1ccncc1 [LINOPIRDINE]
AC50 [8]: 31.6 µM (inconclusive)

COc1cc(/C(C)=C/c2ccccc2)c2c(c1)oc1ccccc12
EC50 [3]: 2.3 µM (active)
EC50 [4]: > 150 µM (not active)
EC50 [5]: 20.9 µM (active)

CCCN=C(S)N1CCN(c2nc(C)nc3sc4c(c23)CCCC4)CC1
CC50 [6]: 11.2 µM (active)

CCOC(=O)c1cnc2ccc(OCC)cc2c1N1CCN(c2ccccc2)CC1
AC50 [7]: 14.9 µM (active)

CCOCC(=O)Nc1ccc([N+](=O)[O-])cc1OC
CC50 [6]: > 50 µM (active)

N#Cc1cccc(-c2nc3cnc(N4CCOCC4)nc3n(C[C@H]3CCCO3)c2=O)c1
AC50 [8]: 0.794 µM (inconclusive)

Cc1csc2ncnc(N3CCN(S(=O)(=O)c4cccc(C(F)(F)F)c4)CC3)c12
AC50 [7]: 3.86 µM (active)

C=CCNC(=S)N/N=C/c1ccc(OCc2ccccc2Cl)cc1
EC50 [1]: > 30 µM (not active)
EC50 [2]: 1.65 µM (active)

Cc1ccc(-c2cccc(C(=O)NCCc3ccccc3)n2)c2ccccc12
CC50 [6]: 16.2 µM (active)

COC(=O)C1=C(c2ccccc2OCc2ccccc2)C[C@@H]2CC[C@H]1N2C(=O)NCc1ccc([N+](=O)[O-])cc1
CC50 [6]: 37.6 µM (active)

COc1ccc(CCn2c(-c3cc([N+](=O)[O-])cc([N+](=O)[O-])c3)nc3nc4ccccc4nc32)cc1OC
EC50 [1]: > 60 µM (not active)
EC50 [2]: 0.105 µM (active)

CC(=O)Nc1ccc(S(=O)(=O)N2c3ccccc3NC(=O)CC2C)c(Cl)c1 (stereo unspecified)
AC50 [7]: > 260 µM (inactive)

Cc1cc(C)nc(SCC(=O)NC2=NN=C(c3ccc(Br)cc3)CS2)n1
EC50 [3]: 2.6 µM (active)
EC50 [4]: 3.62 µM (active)
EC50 [5]: > 150 µM (not active)
EC50 [1]: > 60 µM (inconclusive)
EC50 [2]: 1.65 µM (active)
AC50 [7]: 4.78 µM (active)

Cc1ccc(C2NC(c3ccc(C)cc3)C(C)C(=NO)C2C)cc1 (stereo unspecified)
AC50 [8]: 15.8 µM (inconclusive)

CN(Cc1ccco1)c1ncncc1-c1cccc(C#N)c1
AC50 [8]: 12.6 µM (inconclusive)

O=C1N=C(N/N=C/c2ccccc2O)SC1Cc1ccc(F)cc1 (stereo unspecified)
EC50 [3]: 16 µM (active)
EC50 [4]: > 150 µM (not active)
EC50 [5]: > 150 µM (not active)
AC50 [7]: 4.67 µM (active)

CC(C)(C)c1ccc(OCC(=O)N2CCN(c3ncccn3)CC2)cc1
EC50 [3]: > 150 µM (not active)
EC50 [4]: > 150 µM (not active)
EC50 [5]: > 150 µM (not active)

COc1ccccc1NC(=O)Nc1nc(CC(=O)N2CCN(c3ccccc3OC)CC2)cs1
CC50 [6]: 15.2 µM (active)

Clc1cccc(-c2cc3nc4c(c(N5CCN(c6cnccn6)CC5)n3n2)CCCC4)c1
CC50 [6]: 35.2 µM (active)

CCOc1ccccc1CN1CCCC(CNC(=O)Cc2ccc(OC)cc2)C1 (stereo unspecified)
EC50 [1]: > 60 µM (not active)
EC50 [2]: 1.33 µM (active)

COCCn1c(=O)c(-c2cn(C)c3ccccc23)nc2cnc(Oc3ccccc3)nc21
AC50 [8]: 10 µM (inconclusive)

Cc1cccc2c1-c1sc(C(=O)N3CCc4ccccc4C3)cc1CO2
CC50 [6]: 11.6 µM (active)

CCCCOc1ccc(/C=C/C2=CC(C)(C)NC(S)=N2)cc1OCC
EC50 [1]: > 60 µM (inconclusive)
EC50 [2]: 0.774 µM (active)

N#CCCn1c(=O)c(-c2ccc(Cl)cc2)nc2cnc(Oc3ccccc3)nc21
AC50 [8]: 0.501 µM (inconclusive)

CCOC(=O)C1CCN(C(=O)C(=O)c2cn(CC(=O)N3CCCCCC3)c3ccccc23)CC1
EC50 [1]: > 60 µM (not active)
EC50 [2]: 0.763 µM (active)

O=C(CCN1CCN(C/C=C/c2ccccc2)CC1)Nc1cccc(F)c1
EC50 [1]: 21.9 µM (active)
EC50 [2]: 0.383 µM (active)

CCCCCn1c(=O)c(C(=O)Nc2ncccc2C)c(O)c2ccccc21
AC50 [7]: 10.4 µM (active)

CCCCN(CC)CCNC(=O)c1cn(-c2ccc(Cl)cc2)c(=O)c2ccccc12
EC50 [1]: > 60 µM (inconclusive)
EC50 [2]: 0.896 µM (active)

CCn1c(=O)c(C(=O)NNC(=O)c2ccc(Cl)cc2Cl)c(O)c2ccccc21
EC50 [3]: 3.62 µM (active)
EC50 [4]: 7.58 µM (active)

CCCNC(=O)CCc1c(C)nc2c(c(C)nn2-c2ccc(C)cc2)c1C
EC50 [1]: > 60 µM (not active)
EC50 [2]: 1.8 µM (active)

NC(=O)N/N=C(/CCCCCC/C(=N\NC(N)=O)c1ccccc1)c1ccccc1
EC50 [3]: 26.6 µM (active)
EC50 [4]: > 150 µM (not active)
EC50 [5]: > 150 µM (not active)

COc1ccc(/N=C2/SCC(c3ccc([N+](=O)[O-])cc3)=NN2CCO)cc1
CC50 [6]: 15.8 µM (active)

Cc1ccc(-n2c(-c3ccccc3)cc(/C=N/NC(=O)CC#N)c2-c2ccccc2)cc1
EC50 [1]: > 60 µM (not active)
EC50 [2]: 1.72 µM (active)

COCCNC(=O)COc1ccc(Oc2ccccc2)cc1
AC50 [8]: 25.1 µM (inconclusive)

COc1ccc(N2CCN(C(CNS(=O)(=O)c3cc(F)ccc3F)c3cccnc3)CC2)cc1 (stereo unspecified)
EC50 [1]: > 60 µM (not active)
EC50 [2]: 0.206 µM (active)

Nc1nc(Nc2ccccc2)nc2c1ncn2[C@@H]1O[C@@H](CO)[C@H](O)[C@H]1O
AC50 [8]: 39.8 µM (inconclusive)

COC(=O)[C@@]1(Cc2ccc(OC)cc2)[C@H]2c3cc(C(=O)N(C)C)[nH]c3C[C@H]2CN1C(=O)c1ccccc1
AC50 [8]: 20 µM (inconclusive)

COc1cccc(C(=O)Nc2nc(-c3ccccc3)c(-c3ccccc3)o2)c1
EC50 [3]: 1.44 µM (active)
EC50 [4]: 5.62 µM (active)

O=C(C1=C(O)C(=O)N(Cc2ccco2)C1c1cccc(Cl)c1)c1ccco1 (stereo unspecified)
EC50 [3]: 22.7 µM (active)
EC50 [4]: > 150 µM (not active)
EC50 [5]: > 150 µM (not active)

CCOc1ccccc1OCCOCCN1CCN(Cc2ccccc2)CC1
EC50 [1]: > 60 µM (not active)
EC50 [2]: 0.633 µM (active)

CC1CCN(C(=O)CCNS(=O)(=O)c2ccc(Br)cc2)CC1
AC50 [7]: > 260 µM (inactive)

COc1cccc(C(=O)Nc2cccc(-c3nnc(-c4ccccc4)o3)c2)c1
EC50 [3]: 23.2 µM (active)
EC50 [4]: 57.9 µM (active)
EC50 [5]: > 150 µM (not active)

COc1ccc(C(=O)CC(Nc2ccc([N+](=O)[O-])cc2)c2ccc(Cl)cc2)cc1 (stereo unspecified)
EC50 [1]: > 60 µM (not active)
EC50 [2]: 2.27 µM (active)

CCCC[C@@H]1C[C@H]1C(NC(=O)c1ccc(C(F)(F)F)cc1)c1ccc(C(=O)OC)cc1 (stereo partly specified)
AC50 [8]: 15.8 µM (inconclusive)

O=C1CCC(/C=C/c2ccccc2)=NN1Cc1ccccc1Cl
CC50 [6]: 27 µM (active)

Cc1onc(-c2c(F)cccc2Cl)c1C(=O)NCc1ccc2c(c1)OCO2
EC50 [3]: > 150 µM (not active)
EC50 [4]: > 150 µM (not active)
EC50 [5]: > 150 µM (not active)

CCCCc1nc2cc(C(=O)N3CCC(OCCOC)CC3)ccc2o1
EC50 [3]: > 150 µM (not active)
EC50 [4]: > 150 µM (not active)
EC50 [5]: > 150 µM (not active)

From ChEMBL document CHEMBL1201862, “PubChem BioAssay data set” (2004)
